Reference: patent EP4745153A1, “GLP-1, GIP AND GCG RECEPTOR […] USE THEREOF” (Jiangsu Hengrui Pharmaceuticals Co., Ltd., priority 2023, dated 2025)
Like-named read-outs stand apart in the source and are kept apart here. Starred links: 1 amine or outer side, 2 acyl side, 3 side chain; linkers in the order of their positions; H or OH if unused. Non-standard residues stand in square brackets, D forms with d. Residues, ends and D or L forms follow the SMILES beside them. Groups on a side chain read outwards from the residue. ξ: configuration not given here. *: point of attachment. C20 diacid = O=C(O)CCCCCCCCCCCCCCCCCCC(=O)*; γGlu = O=C(O)[C@H](CCC(=O)[*:2])N[*:1]; αMeL = CC(C)C[C@](C)(N)C(=O)O; αMeK = C[C@](N)(CCCCN)C(=O)O; ξIva = CCC(C)(N)C(=O)O; AEEA = NCCOCCOCC(=O)O; Aib = CC(C)(N)C(=O)O

Assays:
[1] = Pharmacokinetics in mice after single intravenous injection; design: species or system C57 mice; settings: in vivo
Procedure, shortened: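 Male C57 mice (~25 g, 4-6 weeks, n=3) received a single i.v. dose of 200 nmol/kg in 1×PBS. Plasma collected from 5 min to 72 h was methanol-precipitated with verapamil internal standard and quantified by LC-MS (ESI positive, MRM); PK parameters were calculated by PKSolver.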

human GLP-1R = target: T1, human GLP-1R (Homo sapiens, UniProt P43220); test: cAMP HTRF agonist activity assay in CHO-K1 cells expressing GLP-1R; assay type: cell-based; settings: read-out: Activity against human GLP-1R (EC50 nM); further: 5% FBS, 0.1% Casein
T1 construct: expressed in transfected cells; host or cells: CHO-K1 clonal cell line
Description: (§1) Functional activity was determined in CHO-K1 clonal cell lines expressing GIPR, GLP-1R, and GCGR. […] Each recipient cell (5000 cells/well) was added to an SV 96-well plate (Cisbio, 66PL96025) and incubated with the prepared polypeptide at 37°Cfor 30 min. The resulting increase in intracellular cAMP was quantitatively measured using the cAMP-GS dynamic HTRF assay kit (Cisbio, 62AM4PEJ). Briefly, the intracellular cAMP levels were determined by adding cAMP-d2 conjugate in cell lysis buffer, followed by the antibody anti-cAMP-Eu cryptate (also in cell lysis buffer).
(§2) Using the maximum response percentage vs. the added polypeptide concentration, the relative EC50 values were derived through nonlinear regression analysis and fitted to a four-parameter logarithmic equation. For specific data, refer to Tables 7-1 to 7-8 below. […]

human GIPR = target: T2, human GIPR (Homo sapiens, UniProt P48546); test: cAMP HTRF agonist activity assay in CHO-K1 cells expressing GIPR; assay type: cell-based; settings: read-out: Activity against human GIPR (EC50 nM); further: 5% FBS, 0.1% Casein
T2 construct: expressed in transfected cells; host or cells: CHO-K1 clonal cell line
T2 sequence (P48546 22-466): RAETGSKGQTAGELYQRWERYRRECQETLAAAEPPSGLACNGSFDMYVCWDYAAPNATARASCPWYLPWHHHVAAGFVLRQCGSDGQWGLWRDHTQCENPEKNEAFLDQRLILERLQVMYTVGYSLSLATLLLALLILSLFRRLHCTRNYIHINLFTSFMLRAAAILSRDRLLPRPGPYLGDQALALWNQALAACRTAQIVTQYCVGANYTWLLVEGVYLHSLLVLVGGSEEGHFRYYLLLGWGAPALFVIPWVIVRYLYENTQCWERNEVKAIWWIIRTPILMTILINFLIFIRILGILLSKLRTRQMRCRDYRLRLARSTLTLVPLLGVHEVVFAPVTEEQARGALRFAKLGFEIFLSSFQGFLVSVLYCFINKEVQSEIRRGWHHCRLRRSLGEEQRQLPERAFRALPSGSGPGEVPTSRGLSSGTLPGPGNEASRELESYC
Procedure, shortened: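 Clonal CHO-K1 lines, 5000 cells/well, exposed to polypeptides for 30 min at 37°C. Intracellular cAMP read by HTRF (cAMP-d2 conjugate plus anti-cAMP-Eu cryptate in lysis buffer). Relative EC50 from four-parameter nonlinear fit of percent maximum response against concentration.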

human GCGR = target: T3, human GCGR (Homo sapiens, UniProt P47871); test: cAMP HTRF agonist activity assay in CHO-K1 cells expressing GCGR; assay type: cell-based; on Activity against human GCGR (EC50 nM): 5% FBS, 0.1% Casein
T3 construct: expressed in transfected cells; host or cells: CHO-K1 clonal cell line
Description: as §1, §2

[2] = mouse, male C57 mice, single intravenous dose 200 nmol/kg, plasma

T3 sequence (P47871 26-477): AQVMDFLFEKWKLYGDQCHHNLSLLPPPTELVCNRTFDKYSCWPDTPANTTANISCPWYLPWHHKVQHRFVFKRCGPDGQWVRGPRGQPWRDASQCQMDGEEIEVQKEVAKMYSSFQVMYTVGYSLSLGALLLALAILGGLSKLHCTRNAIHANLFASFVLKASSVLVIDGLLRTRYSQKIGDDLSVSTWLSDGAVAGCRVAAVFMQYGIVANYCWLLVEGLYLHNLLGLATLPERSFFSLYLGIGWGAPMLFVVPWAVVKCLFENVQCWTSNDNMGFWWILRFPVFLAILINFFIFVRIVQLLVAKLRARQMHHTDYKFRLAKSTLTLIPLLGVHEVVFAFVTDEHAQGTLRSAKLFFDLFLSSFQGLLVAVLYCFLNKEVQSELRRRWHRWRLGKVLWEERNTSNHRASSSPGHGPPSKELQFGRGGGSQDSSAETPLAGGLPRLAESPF
T1 sequence (P43220 24-463): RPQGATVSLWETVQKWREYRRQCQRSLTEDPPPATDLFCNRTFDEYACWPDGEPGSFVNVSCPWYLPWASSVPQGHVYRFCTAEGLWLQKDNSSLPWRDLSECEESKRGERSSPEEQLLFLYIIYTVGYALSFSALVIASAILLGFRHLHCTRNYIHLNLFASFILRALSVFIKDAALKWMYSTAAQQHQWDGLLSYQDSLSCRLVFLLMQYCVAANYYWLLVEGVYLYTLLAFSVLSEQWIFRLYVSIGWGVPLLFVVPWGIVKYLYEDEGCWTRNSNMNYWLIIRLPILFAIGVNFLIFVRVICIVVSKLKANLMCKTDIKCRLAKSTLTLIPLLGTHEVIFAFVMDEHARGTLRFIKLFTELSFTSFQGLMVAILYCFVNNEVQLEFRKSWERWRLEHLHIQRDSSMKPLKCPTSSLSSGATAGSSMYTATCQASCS

Work on CC[C@H](C)[C@H](NC(=O)[C@H](CO)NC(=O)[C@H](Cc1ccc(O)cc1)NC(=O)[C@H](CC(=O)O)NC(=O)[C@H](CO)NC(=O)[C@@H](NC(=O)[C@H](Cc1ccccc1)NC(=O)[C@@H](NC(=O)CNC(=O)[C@H](Cc1c[nH]cn1)NC(=O)C(C)(C)NC(=O)[C@@H](N)Cc1c[nH]cn1)[C@@H](C)O)[C@@H](C)O)C(=O)N[C@@](C)(CC(C)C)C(=O)N[C@@H](CC(C)C)C(=O)N[C@@H](CCC(=O)O)C(=O)N[C@@H](CCCCNC(=O)COCCOCCNC(=O)COCCOCCNC(=O)CC[C@H](NC(=O)CCCCCCCCCCCCCCCCCCC(=O)O)C(=O)O)C(=O)N[C@@H](CCCCN)C(=O)N[C@@H](C)C(=O)N[C@@H](C)C(=O)NC(C)(CC)C(=O)N[C@@H](CCC(=O)O)C(=O)N[C@@H](Cc1ccccc1)C(=O)N[C@H](C(=O)N[C@@H](CCC(=O)O)C(=O)N[C@@H](Cc1c[nH]c2ccccc12)C(=O)N[C@@H](CC(C)C)C(=O)N[C@@H](CC(C)C)C(=O)N[C@@H](C)C(=O)NCC(=O)NCC(=O)N1CCC[C@H]1C(=O)N[C@@H](CO)C(=O)N[C@@H](CO)C(=O)NCC(=O)N[C@@H](C)C(=O)N1CCC[C@H]1C(=O)N1CCC[C@H]1C(=O)N1CCC[C@H]1C(=O)N[C@@H](CO)C(N)=O)C(C)C (stereo partly shown) [Compound 0137] (H-H[Aib]HGTFTSDYSI[αMeL]LEK([AEEA-AEEA-γGlu-C20 diacid])KAA[ξIva]EFVEWLLAGGPSSGAPPPS-NH2) yielded a clearance ([1]; male, C57, mouse, iv) of 0.163 mL/min/kg, a half-life ([1]; male, C57, mouse, iv) of 8.8 h and an EC50 (human GLP-1R) of 0.013 nM. The EC50 (human GIPR) was 0.001 nM.
In the case of CCC(C)(NC(=O)[C@H](C)NC(=O)[C@H](C)NC(=O)[C@H](CCCCN)NC(=O)[C@H](CCCCNC(=O)COCCOCCNC(=O)COCCOCCNC(=O)CC[C@H](NC(=O)CCCCCCCCCCCCCCCCCCC(=O)O)C(=O)O)NC(=O)[C@H](CCC(=O)O)NC(=O)[C@H](CC(C)C)NC(=O)[C@H](CC(C)C)NC(=O)[C@](C)(CCCCN)NC(=O)[C@H](CO)NC(=O)[C@H](Cc1ccc(O)cc1)NC(=O)[C@H](CC(=O)O)NC(=O)[C@H](CO)NC(=O)[C@@H](NC(=O)[C@H](Cc1ccccc1)NC(=O)[C@@H](NC(=O)CNC(=O)[C@H](CCC(N)=O)NC(=O)C(C)(C)NC(=O)[C@@H](N)Cc1ccc(O)cc1)[C@@H](C)O)[C@@H](C)O)C(=O)N[C@@H](CCC(=O)O)C(=O)N[C@@H](Cc1ccccc1)C(=O)N[C@H](C(=O)N[C@@H](CCC(=O)O)C(=O)N[C@@H](Cc1c[nH]c2ccccc12)C(=O)N[C@@H](CC(C)C)C(=O)N[C@@H](CC(C)C)C(=O)N[C@@H](C)C(=O)NCC(=O)NCC(=O)N1CCC[C@H]1C(=O)N[C@@H](CO)C(=O)N[C@@H](CO)C(=O)NCC(=O)N[C@@H](C)C(=O)N1CCC[C@H]1C(=O)N1CCC[C@H]1C(=O)N1CCC[C@H]1C(=O)N[C@@H](CO)C(N)=O)C(C)C (stereo partly shown) [Compound 0127] (H-Y[Aib]QGTFTSDYS[αMeK]LLEK([AEEA-AEEA-γGlu-C20 diacid])KAA[ξIva]EFVEWLLAGGPSSGAPPPS-NH2), the EC50 (human GCGR) is reported as 0.037 nM.
Work on CC(C)C[C@H](NC(=O)[C@H](CC(C)C)NC(=O)[C@H](Cc1c[nH]c2ccccc12)NC(=O)[C@H](CCC(=O)O)NC(=O)[C@@H](NC(=O)[C@H](Cc1ccccc1)NC(=O)[C@H](CCC(=O)O)NC(=O)[C@H](CCC(N)=O)NC(=O)[C@H](C)NC(=O)[C@H](C)NC(=O)[C@H](CCCCN)NC(=O)[C@H](CCCCNC(=O)COCCOCCNC(=O)COCCOCCNC(=O)CC[C@H](NC(=O)CCCCCCCCCCCCCCCCCCC(=O)O)C(=O)O)NC(=O)[C@H](CCC(=O)O)NC(=O)[C@H](CC(C)C)NC(=O)[C@H](Cc1ccc(O)cc1)NC(=O)[C@](C)(CCCCN)NC(=O)[C@H](CO)NC(=O)[C@H](Cc1ccc(O)cc1)NC(=O)[C@H](CC(=O)O)NC(=O)[C@H](CO)NC(=O)[C@@H](NC(=O)[C@H](Cc1ccccc1)NC(=O)[C@@H](NC(=O)CNC(=O)[C@H](Cc1c[nH]cn1)NC(=O)C(C)(C)NC(=O)[C@@H](N)Cc1c[nH]cn1)[C@@H](C)O)[C@@H](C)O)C(C)C)C(=O)N[C@@H](C)C(=O)NCC(=O)NCC(=O)N1CCC[C@H]1C(=O)N[C@@H](CO)C(=O)N[C@@H](CO)C(=O)NCC(=O)N[C@@H](C)C(=O)N1CCC[C@H]1C(=O)N1CCC[C@H]1C(=O)N1CCC[C@H]1C(=O)N[C@@H](CO)C(N)=O [Compound 0104] (H-H[Aib]HGTFTSDYS[αMeK]YLEK([AEEA-AEEA-γGlu-C20 diacid])KAAQEFVEWLLAGGPSSGAPPPS-NH2) yielded an AUC(0-inf) [1, 2] of 30.9 µM·h, a C0 [1, 2] of 4.22 µM and a clearance ([1]; mouse, male C57 mice, single intravenous dose 200 nmol/kg, plasma, read-out: CLp) of 0.108 mL/min/kg. It also gave a half-life ([1]; mouse, male C57 mice, single intravenous dose 200 nmol/kg, plasma, read-out: T1/2 (converted)) of 11.5 h and an EC50 (human GCGR) of 0.037 nM.
In the case of CC[C@H](C)[C@H](NC(=O)[C@H](CO)NC(=O)[C@H](Cc1ccc(O)cc1)NC(=O)[C@H](CC(=O)O)NC(=O)[C@H](CO)NC(=O)[C@@H](NC(=O)[C@H](Cc1ccccc1)NC(=O)[C@@H](NC(=O)CNC(=O)[C@H](Cc1c[nH]cn1)NC(=O)C(C)(C)NC(=O)[C@@H](N)Cc1c[nH]cn1)[C@@H](C)O)[C@@H](C)O)C(=O)N[C@@H](CC(C)C)C(=O)N[C@@H](CC(C)C)C(=O)N[C@@H](CCC(=O)O)C(=O)N[C@@H](CCCCNC(=O)COCCOCCNC(=O)COCCOCCNC(=O)CC[C@H](NC(=O)CCCCCCCCCCCCCCCCCCC(=O)O)C(=O)O)C(=O)N[C@@H](CCCCN)C(=O)N[C@@H](C)C(=O)N[C@@H](C)C(=O)N[C@@H](CCC(N)=O)C(=O)N[C@@H](CCC(=O)O)C(=O)N[C@@H](Cc1ccccc1)C(=O)N[C@H](C(=O)N[C@@H](CCC(=O)O)C(=O)N[C@@H](Cc1c[nH]c2ccccc12)C(=O)N[C@@H](CC(C)C)C(=O)N[C@@H](CC(C)C)C(=O)N[C@@H](C)C(=O)N[C@H](CCC(=O)O)C(=O)NCC(=O)N1CCC[C@H]1C(=O)N[C@@H](CO)C(=O)N[C@@H](CO)C(=O)NCC(=O)N[C@@H](C)C(=O)N1CCC[C@H]1C(=O)N1CCC[C@H]1C(=O)N1CCC[C@H]1C(=O)N[C@@H](CO)C(N)=O)C(C)C [Compound 0151], the EC50 (human GIPR) is reported as 0.004 nM and the EC50 (human GCGR; read-out: Activity against human GCGR (EC50 nM)) is reported as 0.055 nM.
Work on CC[C@H](C)[C@H](NC(=O)[C@](C)(CCCCN)NC(=O)[C@H](CO)NC(=O)[C@H](Cc1ccc(O)cc1)NC(=O)[C@H](CC(=O)O)NC(=O)[C@H](CO)NC(=O)[C@@H](NC(=O)[C@H](Cc1ccccc1)NC(=O)[C@@H](NC(=O)CNC(=O)[C@H](Cc1c[nH]cn1)NC(=O)C(C)(C)NC(=O)[C@@H](N)Cc1c[nH]cn1)[C@@H](C)O)[C@@H](C)O)C(=O)N[C@@H](CC(C)C)C(=O)N[C@@H](CCC(=O)O)C(=O)N[C@@H](CCCCNC(=O)COCCOCCNC(=O)COCCOCCNC(=O)CC[C@H](NC(=O)CCCCCCCCCCCCCCCCCCC(=O)O)C(=O)O)C(=O)N[C@@H](CCC(N)=O)C(=O)N[C@@H](C)C(=O)N[C@@H](C)C(=O)NC(C)(CC)C(=O)N[C@@H](CCC(=O)O)C(=O)N[C@@H](Cc1ccccc1)C(=O)N[C@H](C(=O)N[C@@H](CCC(=O)O)C(=O)N[C@@H](Cc1c[nH]c2ccccc12)C(=O)N[C@@H](CC(C)C)C(=O)N[C@@H](CC(C)C)C(=O)N[C@@H](C)C(=O)NCC(=O)NCC(=O)N1CCC[C@H]1C(=O)N[C@@H](CO)C(=O)N[C@@H](CO)C(=O)NCC(=O)N[C@@H](C)C(=O)N1CCC[C@H]1C(=O)N1CCC[C@H]1C(=O)N1CCC[C@H]1C(=O)N[C@@H](CO)C(N)=O)C(C)C (stereo partly shown) [Compound 0130] (H-H[Aib]HGTFTSDYS[αMeK]ILEK([AEEA-AEEA-γGlu-C20 diacid])QAA[ξIva]EFVEWLLAGGPSSGAPPPS-NH2) yielded an EC50 (human GCGR) of 0.03 nM.
